{"source": "patent US11655239B2", "about": "(SHANGHAI INSTITUTE OF MATERIAL MEDICA, CHINESE ACADEMY OF …, priority 2019, dated 2023)", "key": {"[1]": {"tested_on": "pulmonary fibrosis induced by bleomycin in mice", "experiment": "MASSON staining and α-SMA immunohistochemical staining of lung sections", "type": "in vivo, mouse", "conditions": "Effect example 5, 30, 60, 90 mg/kg oral qd 12 days", "method": "The grouping of mice is the same as that in Effect example 2.\n1) Dewaxing to water of the paraffin sections: the sections were put into xylene I (20 minutes)-xylene II (29 minutes)-absolute ethanol I (5 minutes)-absolute ethanol II (5 minutes)-75% ethanol (5 minutes), and then washed with tap water.\n2) Potassium dichromate staining: the sections were soaked in potassium dichromate overnight and washed with tap water.\n3) Iron hematoxylin staining: iron hematoxylin solution A and B were mixed in an equal ratio to form an iron hematoxylin staining solution, then the sections were put into iron hematoxylin for about 3 minutes, washed with tap water, differentiated with a solution of hydrochloric acid in ethanol, and then rinsed with tap water.\n4) Ponceau red acid fuchsin staining: the sections were put into a Ponceau red acid fuchsin solution for 5 to 10 minutes and rinsed with tap water.\n5) Phosphomolybdic acid staining: the sections were put into an aqueous phosphomolybdic acid solution for 1 to 3 minutes.\n6) Aniline blue staining: after the phosphomolybdic acid staining, the sections were not washed with water, but directly put into an aniline blue staining solution for staining for 3 to 6 minutes.\n7) Differentiation: the sections were differentiated with 1% glacial acetic acid, and dehydrated with two cylinders of absolute ethanol. […]"}, "MRC-5 induced by TGF-β1": {"tested_on": "MRC-5 induced by TGF-β1", "experiment": "Activation of MRC-5 induced by TGF-β1", "type": "cell-based, human", "conditions": "levels of Fibronectin, α-SMA, Collagen1-α1", "method": "1) Preparation of cell protein samples: the cell culture liquid was discarded, wash was performed once with PBS, and samples were collected by adding 1×SDS-Loading. after the samples were collected, they were placed in a metal bath at 100° C., and the samples were boiled for 10 minutes, and then the samples were stored at 4° C. for waiting for subsequent test.\n2) Gel preparation and sample loading: according to the molecular weight of the detected protein, different concentrations of separation gel were selected. after filling the 1× electrophoresis buffer, an equal volume of protein sample 4 μl and protein marker were added on the far left to right in sequence.\nWhen the sample was in the concentrated gel, the voltage was set to 80 V; when the sample was electrophoresed to the separation gel, the voltage was increased to 120 V until the bromophenol blue was electrophoresed to reach the bottom of the gel, and the electrophoresis ended. […]\n8) Secondary antibodies: the film with the primary antibodies was rewarmed and incubated for about half an hour, and then the primary antibodies were recovered and the film was washed quickly with TBST solution 3 times, 10 minutes each time. […] The dilution ratio of the secondary antibody dedicated for DDR2 was 1:5000; The dilution ratio for the rest of the secondary antibodies were 1:8000, ready for use. […]"}}, "data": [{"smiles": "O=C(Nc1cccc(C(F)(F)F)c1)c1ccc(C2CC2)c(-c2ccc3nc(Nc4cnn(C5CC5)c4)ncc3c2)c1", "note": "[Compound S15, 4-cyclopropyl-3-(2-((1-cyclopropyl-1H-pyrazol-4-yl)amino)quinazolin-6-yl)-N-(3-(trifluoromethyl)phenyl)benzamide]", "values": [{"measurement": "expression of collagen and α-SMA (staining, immunohistochemistry)", "setting": "[1]", "result": "decrease the expression of collagen and α-SMA in a dose-dependent manner"}, {"measurement": "pulmonary fibrosis, MASSON staining", "setting": "[1]", "result": "significantly reduce BLM-induced lung injury and inflammation, and can also reduce pulmonary fibrosis"}, {"measurement": "activation of MRC-5 induced by TGF-β1", "setting": "MRC-5 induced by TGF-β1", "result": "inhibit the activation of MRC-5 induced by TGF-β1 in a dose-dependent manner"}]}]}
